This test has as its target chymotrypsin (Bos taurus, UniProt P00766). The experiment in a line: Determination of enzyme inhibitory activity against chymotrypsin (substrate AAPFpNA, OD 405 nm). Type of test: biochemical. The note with it: for IC50: chymotrypsin 30 nM, AAPFpNA 0.5 mM, pH 7.8, 37° C.; for remaining activity at 0.0001 µM: peptide 0.0001 μM; for remaining activity at 0.01 µM: peptide 0.01 μM; for remaining activity at 0.1 µM: peptide 0.1 μM; for remaining activity at 0.25 µM: peptide 0.25 μM; for remaining activity at 0.5 µM: peptide 0.5 μM; for remaining activity at 1 µM: peptide 1 μM; for remaining activity at 10 µM: peptide 10 μM; for remaining activity at 100 µM: peptide 100 μM; for remaining activity at 0.001 µM: peptide 0.001 μM; for remaining activity at 0.2 µM: peptide 0.2 μM; for remaining activity at 0.4 µM: peptide 0.4 μM; for remaining activity at 0.75 µM: peptide 0.75 μM; for remaining activity at 1000 µM: peptide 1000 μM. The method, then:
The substrates N-succinyl-Ala-Ala-Pro-Phe-p-nitroaniline (AAPFpNA) is used in competitive binding reaction to determine the inhibitory activities against α -chymotrypsin. Experiments for a-chymotrypsin was measured in 20 mM CaCl2, 50 mM Tris-HCl buffer (pH 7.8). The concentration of the peptide was measured using optical density (OD) at 280 nm. The Michaelis constant (Km) of the enzyme hydrolysis substrate is calculated from the initial rate of substrate hydrolysis at 405 nm. The absorbance value of the substrate was measured at 405 nm after complete hydrolysis. All data were processed using nonlinear regression.
(1) Added a total 190 μL of reaction buffer (20 mM CaCl2, 50 mM Tris-HCl (pH 7.8)), different concentrations of anti-chymorypsin peptides (CHs) into the pre-cold 96 well plate, followed by preheating at 37° C. for 5 min and centrifugated at 500 rpm for 1 min and allowed to stand for 4 minutes. Then added 8 μL of 750 nM chymotrypsin and incubated at 37° C. for 10 min, and centrifugated at 500 rpm for 1 min and allowed to stand for 9 minutes. Finally, added 2 μL of 50 mM AAPFpNA, and mixed by centrifugation at 500 rpm for 1 min. The plate was incubated at 37° C. for 90 min, and the absorbance value at 405 nm was measured. Three repetitions were made, and only reaction buffer and substrate were added in the blank control as the minimum absorption value (Min OD 405 nm); Only reaction buffer, enzyme and substrate were added in the negative control as the maximum absorption value (Max OD 405 nm).
(2) In the 200 μL of reaction system, the final concentrations of chymotrypsin and AAPFpNA were 30 nM and 0.5 mM, respectively.
Plotted the residual activity of enzyme with […] to obtain the half inhibitory concentration (IC50) of anti-chymorypsin peptides (CHs). Then, substituted it into the formula […]/(1+S/Km) (S, IC50, and Km were substrate concentration, half inhibitory concentration, and Michaelis constant, respectively) to obtain the inhibition constant Ki of anti-chymorypsin peptides (CHs).

Where [1] appears, read: read-out: Residual activity of chymotrypsin.

Where a SMILES comes first, the peptide text is derived from it. Bridges are numbered along the chain shown (N, C = ends).

As usually defined, the Ki is the equilibrium dissociation constant of an inhibitor or competing ligand from its target. Lower therefore signals higher affinity. Broadly, the IC50 is the concentration that gives 50% inhibition. Compound `CC[C@H](C)[C@@H]1NC(=O)[C@@H]2CCCN2C(=O)[C@@H]2CCCN2C(=O)[C@H]([C@@H](C)CC)NC(=O)[C@H](CO)NC(=O)[C@H](Cc2ccc(O)cc2)NC(=O)[C@H]([C@@H](C)O)NC(=O)[C@@H](NC(=O)[C@@H](NC(=O)CN)[C@@H](C)O)CSSC[C@@H](C(=O)N[C@@H](CC(N)=O)C(=O)O)NC1=O` [CH62] (H-GTCTYSIPPICN-OH; disulfide 3-11; C-terminus assumed) had a Ki of 0.06 µM and an IC50 of 0.15 µM. Besides, under setting [1], the remaining activity at 0.0001 µM is 100.9 ± 0.8%, the remaining activity at 0.01 µM stood at 102 ± 2.2%, the remaining activity at 0.1 µM is 56.4 ± 2% and the remaining activity at 0.25 µM is 40.9 ± 6.8%. Moreover, under setting [1], the remaining activity at 0.5 µM stood at 25.1 ± 1.5%, the remaining activity at 1 µM stood at 14.2 ± 5.9%, the remaining activity at 10 µM turned out to be 0.8 ± 0.1% and the remaining activity at 100 µM amounted to 0.1%. Moreover, the remaining activity at 0.05 µM (peptide 0.05 μM, read-out: Residual activity of chymotrypsin) was 83.4 ± 8.3%.
As to `CC[C@H](C)[C@@H]1NC(=O)[C@H](CO)NC(=O)[C@H](Cc2ccc(O)cc2)NC(=O)[C@H]([C@@H](C)O)NC(=O)[C@@H](NC(=O)[C@@H](N)Cc2ccccc2)CSSC[C@@H](C(=O)N[C@@H](CCCNC(=N)N)C(=O)O)NC(=O)[C@H](CCC(N)=O)NC(=O)[C@@H]2CCCN2C(=O)[C@@H]2CCCN2C1=O` [CH35] (H-FCTYSIPPQCR-OH; disulfide 2-10; C-terminus assumed), affinity was put at a Ki of 0.19 µM and 0.45 µM corresponded to half-maximal inhibition (IC50). For the same compound, under setting [1], the remaining activity at 0.001 µM came to 100.8 ± 0.9%, the remaining activity at 0.01 µM was found to be 101 ± 1.2%, the remaining activity at 0.1 µM was 101 ± 2.6% and the remaining activity at 0.2 µM turned out to be 78.9 ± 2.9%. For the same compound, under setting [1], the remaining activity at 0.4 µM is 58.8 ± 3.4%, the remaining activity at 1 µM amounted to 16.6 ± 4.7%, the remaining activity at 10 µM is 2.6 ± 0.2% and the remaining activity at 100 µM amounted to 0%. In addition, for the setting “peptide 0.8 μM, read-out: Residual activity of chymotrypsin”, the remaining activity at 0.8 µM was determined as 27.3 ± 2.9%. In addition, the “inhibitory activity reduced (fold)” value (relative to CH10) is about 7 times.
For `CC[C@H](C)[C@@H]1NC(=O)[C@@H]2CCCN2C(=O)[C@@H]2CCCN2C(=O)[C@H]([C@@H](C)CC)NC(=O)[C@H](CO)NC(=O)[C@H](Cc2ccc(O)cc2)NC(=O)[C@H]([C@@H](C)O)NC(=O)[C@H](C)NC(=O)[C@H](CCCNC(=N)N)NC(=O)CNC(=O)[C@@H](N)CSSC[C@@H](C(=O)N[C@@H](Cc2ccccc2)C(=O)O)NC1=O` [CH67] (H-CGRATYSIPPICF-OH; disulfide 1-12; C-terminus assumed), the Ki was 0.86 µM and half-maximal inhibition (IC50) required 2 µM.
`CC[C@H](C)[C@@H]1NC(=O)[C@@H]2CCCN2C(=O)[C@@H]2CCCN2C(=O)[C@H]([C@@H](C)CC)NC(=O)[C@H](CO)NC(=O)[C@H](Cc2ccc(O)cc2)NC(=O)[C@H]([C@@H](C)O)NC(=O)[C@@H](NC(=O)[C@@H](NC(=O)CN)[C@@H](C)O)CSSC[C@@H](C(=O)N[C@@H](CC(N)=O)C(=O)N2CCC[C@H]2C(=O)N[C@@H](CC(N)=O)C(=O)O)NC1=O` [CH60] (H-GTCTYSIPPICNPN-OH; disulfide 3-11; C-terminus assumed) yielded a Ki of 0.04 µM and an IC50 of 0.09 µM. Also, under setting [1], the remaining activity at 0.0001 µM worked out at 104.2 ± 0.8%, the remaining activity at 0.001 µM came to 104.5 ± 0.9%, the remaining activity at 0.01 µM amounted to 102 ± 7.6% and the remaining activity at 0.1 µM is 47.6 ± 7.6%. Also, under setting [1], the remaining activity at 0.25 µM worked out at 29.5 ± 4.6%, the remaining activity at 0.5 µM turned out to be 7.4 ± 1%, the remaining activity at 1 µM came to 3 ± 0.2% and the remaining activity at 10 µM is 0.7 ± 0.1%. For the same compound, the remaining activity at 100 µM under setting [1] was determined as 0%.
Compound `CC[C@H](C)[C@@H]1NC(=O)[C@H](CO)NC(=O)[C@H](Cc2ccc(O)cc2)NC(=O)[C@H]([C@@H](C)O)NC(=O)[C@@H](NC(=O)[C@@H](N)Cc2ccccc2)CSSC[C@@H](C(=O)N[C@@H](Cc2ccc(O)cc2)C(=O)NCC(=O)O)NC(=O)[C@H](CCC(N)=O)NC(=O)[C@@H]2CCCN2C(=O)[C@@H]2CCCN2C1=O` [CH10] (H-FCTYSIPPQCYG-OH; disulfide 2-10; C-terminus assumed) returned a Ki of 0.03 µM and an IC50 of 0.06 µM. Further, under setting [1], the remaining activity at 0.0001 µM was 101%, the remaining activity at 0.01 µM worked out at 95.1 ± 1.2%, the remaining activity at 0.1 µM amounted to 35.4 ± 7.2% and the remaining activity at 0.2 µM amounted to 24.9 ± 3.5%. Further, under setting [1], the remaining activity at 0.4 µM amounted to 18 ± 4.9%, the remaining activity at 1 µM turned out to be 3.8 ± 0.4%, the remaining activity at 10 µM amounted to 0.1 ± 0.1% and the remaining activity at 100 µM was -0.1%.
The compound `CC[C@H](C)[C@@H]1NC(=O)[C@@H]2CCCN2C(=O)[C@@H]2CCCN2C(=O)[C@H]([C@@H](C)CC)NC(=O)[C@H](CO)NC(=O)[C@H](Cc2ccc(O)cc2)NC(=O)[C@H]([C@@H](C)O)NC(=O)[C@H](C)NC(=O)[C@H](CCCNC(=N)N)NC(=O)[C@H](CCC(=O)O)NC(=O)[C@@H](N)CSSC[C@@H](C(=O)N[C@@H](Cc2ccccc2)C(=O)O)NC1=O` [CH70] (H-CERATYSIPPICF-OH; disulfide 1-12; C-terminus assumed) gave a Ki of 0.11 µM and an IC50 of 0.25 µM. Under setting [1], the remaining activity at 0.001 µM was 100 ± 7.6%, the remaining activity at 0.01 µM amounted to 106 ± 1.8%, the remaining activity at 0.1 µM was 105.8 ± 0.9% and the remaining activity at 0.2 µM is 55 ± 7.2%. Further, under setting [1], the remaining activity at 0.5 µM is 26 ± 2.5%, the remaining activity at 1 µM worked out at 7.7 ± 0.2%, the remaining activity at 10 µM is 0.7 ± 0.3% and the remaining activity at 100 µM is -0.1 ± 0.1%. Also, the remaining activity at 0.15 µM (peptide 0.15 μM, read-out: Residual activity of chymotrypsin) stood at 96.5 ± 8.5%.
Take `CC[C@H](C)[C@@H]1NC(=O)[C@@H]2CCCN2C(=O)[C@@H]2CCCN2C(=O)[C@H]([C@@H](C)CC)NC(=O)[C@H](CO)NC(=O)[C@H](Cc2ccc(O)cc2)NC(=O)[C@H]([C@@H](C)O)NC(=O)[C@H](C)NC(=O)[C@H](CCCNC(=N)N)NC(=O)CNC(=O)[C@@H](N)CSSC[C@@H](C(=O)N[C@@H](Cc2ccccc2)C(=O)N2CCC[C@H]2C(=O)N[C@@H](CC(=O)O)C(=O)O)NC1=O` [CH65] (H-CGRATYSIPPICFPD-OH; disulfide 1-12; C-terminus assumed): the affinity corresponds to a Ki of 0.21 µM and the IC50 was 0.48 µM. Further, under setting [1], the remaining activity at 0.001 µM amounted to 99.8 ± 2%, the remaining activity at 0.1 µM was determined as 97.8 ± 4.4%, the remaining activity at 0.25 µM was determined as 89.5 ± 2.9% and the remaining activity at 0.5 µM was 48.2 ± 3.6%. For the same compound, under setting [1], the remaining activity at 0.75 µM was 11.7 ± 1.4%, the remaining activity at 1 µM was 8.9 ± 1.4%, the remaining activity at 10 µM was 4.1 ± 2.3% and the remaining activity at 100 µM was found to be 0.1 ± 0.1%. The remaining activity at 1000 µM under setting [1] stood at 0.2%.
Consider `CC[C@H](C)[C@@H]1NC(=O)[C@H](CO)NC(=O)[C@H](Cc2ccc(O)cc2)NC(=O)[C@H]([C@@H](C)O)NC(=O)[C@@H](NC(=O)[C@@H](N)Cc2ccccc2)CSSC[C@@H](C(=O)N[C@@H](Cc2ccc(O)cc2)C(=O)O)NC(=O)[C@H](CCC(N)=O)NC(=O)[C@@H]2CCCN2C(=O)[C@@H]2CCCN2C1=O` [CH33] (H-FCTYSIPPQCY-OH; disulfide 2-10; C-terminus assumed), for which the Ki was determined as 0.19 µM and the IC50 was 0.44 µM. Besides, under setting [1], the remaining activity at 0.001 µM stood at 99.5 ± 1.4%, the remaining activity at 0.01 µM came to 92.1 ± 2.1%, the remaining activity at 0.1 µM was determined as 93.6 ± 1.6% and the remaining activity at 0.5 µM is 42.7 ± 3.1%. Further, under setting [1], the remaining activity at 0.75 µM was 24.6 ± 2%, the remaining activity at 1 µM was determined as 19.8 ± 1%, the remaining activity at 10 µM is 2 ± 0.2% and the remaining activity at 100 µM was 0.1%. Besides, under setting [1], the remaining activity at 1000 µM is 0.1%.

For the origin of these results see patent US20260242438A1 (INSTITUTE OF MATERIA MEDICA, CHINESE ACADEMY OF MEDICAL …, priority 2022, published 2026).
